From US20100105729A1, “ARYL-SUBSTITUTED HETEROCYCLIC PDE4 INHIBITORS AS ANTI-INFLAMMATORY AGENTS” (KALYPSYS, INC., priority 2006, published 2010)

What was measured:
[1] = molecular target: T1, PDE4B (Homo sapiens, UniProt Q07343); assay: PDE4 IMAP Assay; assay type: biochemical; conditions: catalytic domain of PDE4B, fluorescence polarization
T1 construct: hexa-histidine (His6) (N); made in house
In short: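 His-tagged PDE4B catalytic domain was preincubated with compound for 10 min, then given fluorescent cAMP substrate for 2 h at room temperature. IMAP binding reagent was added for 10–30 min to capture the nucleotide monophosphate product, and fluorescence polarization was read.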

[2] = tested on: PDE4; assay: PDE4 Cellular CNG Assay; assay type: cell-based; conditions: HEK293 cells stably expressing the CNG channel
Source text: Compounds may be screened for functional potency in in vitro cellular assays for their ability to inhibit the activity of phosphodiesterase (PDE) enzymes. A commercial membrane potential assay, Molecular Device's membrane potential assay kit, was modified and utilized to measure the inhibitory activity of compounds on PDE isoforms in living cells. The cellular assay utilizes genetically engineered cyclic nucleotide-gated (CNG) channels as cyclic-AMP (cAMP) sensors. On binding cAMP these ion channels open, allowing the flow of cations across the plasma membrane. CNG channel activity can be monitored by measuring Ca^2+influx in cell populations. The influx of Ca causes a change in membrane potential that is measured by voltage sensitive dyes. PDE inhibitors prevent the degradation of cAMP that is generated by adenylyl cyclases that are activated upon stimulation of G protein-coupled receptors (GPCR) linked to the cAMP pathway. In brief, Molecular Device's membrane potential dye was added to HEK293 cells stably expressing the CNG channel and incubated for 2 hours at room temperature. Test compounds were then added to the cells and incubated for 15 minutes. A GPCR agonist was then added to the cells to stimulate the cAMP pathway and incubated for 45 minutes. Fluorescent measurements were then conducted with either the Molecular Devices Acquest or Analyst. PDE inhibitors will inhibit the degradation of cAMP and cause an increase in fluorescent signal. Roflumilast and Rolipram are the positive controls used in the assay.

[3] = tested on: recombinant human PDE4; conditions: reported value; read-out: IC50 with respect to inhibiting recombinant human PDE4; cited from earlier work

T1 sequence (Q07343 330-659 limits assumed, species assumed): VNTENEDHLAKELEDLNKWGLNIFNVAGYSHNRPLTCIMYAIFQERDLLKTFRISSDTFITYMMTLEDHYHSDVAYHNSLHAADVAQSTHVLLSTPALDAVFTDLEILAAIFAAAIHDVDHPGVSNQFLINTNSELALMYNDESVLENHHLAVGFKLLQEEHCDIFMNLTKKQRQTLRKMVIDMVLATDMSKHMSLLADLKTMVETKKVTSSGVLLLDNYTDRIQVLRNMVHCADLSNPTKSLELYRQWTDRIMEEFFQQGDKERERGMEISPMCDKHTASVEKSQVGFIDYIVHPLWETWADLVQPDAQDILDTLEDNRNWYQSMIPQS

SMILES	inhibition at 10 µM [1]	PDE4 Cellular CNG Assay Activity at 10 μM [2]	IC50 [3]
COc1ccc(C2=NN(C(=O)c3ccccc3Cl)C(c3ccc(F)cc3)C2)cc1OC (centres unmarked) [Example 31, (2-chlorophenyl)(3-(3,4-dimethoxyphenyl)-5-(4-fluorophenyl)-4,5-dihydro-1H-pyrazol-1-yl)methanone]	≥ 50%	+ (+ indicates Activity ≧50% at 10 μM)	–
COc1ccc(C2=NN(C(=O)c3cccs3)C(c3ccccc3F)C2)cc1OC (centres unmarked) [Example 40, (3-(3,4-dimethoxyphenyl)-5-(2-fluorophenyl)-4,5-dihydro-1H-pyrazol-1-yl)(thiophen-2-yl)methanone]	≥ 50%	− (− indicates Activity <50% at 10 μM)	–
COc1ccc(C2=NN(C(=O)c3cc(OC)c(OC)c(OC)c3)C(c3ccc(F)cc3)C2)cc1OC (centres unmarked) [Example 42, (3-(3,4-dimethoxyphenyl)-5-(4-fluorophenyl)-4,5-dihydro-1H-pyrazol-1-yl)(3,4,5-trimethoxyphenyl)methanone]	≥ 50%	+ (+ indicates Activity ≧50% at 10 μM)	–
COc1ccc(C2=NN(C(=O)c3cc(OC)c(OC)c(OC)c3)C(c3cccc([N+](=O)[O-])c3)C2)cc1OC (centres unmarked) [Example 77, (3-(3,4-dimethoxyphenyl)-5-(3-nitrophenyl)-4,5-dihydro-1H-pyrazol-1-yl)(3,4,5-trimethoxyphenyl)methanone]	≥ 50%	+ (+ indicates Activity ≧50% at 10 μM)	–
COc1ccc(C2=NN(C(=O)CCCC(=O)O)C(c3ccc(C)cc3)C2)cc1OC (centres unmarked) [Example 96, 5-(3-(3,4-dimethoxyphenyl)-5-p-tolyl-4,5-dihydro-1H-pyrazol-1-yl)-5-oxopentanoic acid]	< 50%	–	–
COc1ccc(C2CC(c3ccc(OC)c(OC)c3)=NN2C(=O)CCC(=O)O)cc1 (centres unmarked) [Example 97, 4-(3-(3,4-dimethoxyphenyl)-5-(4-methoxyphenyl)-4,5-dihydro-1H-pyrazol-1-yl)-4-oxobutanoic acid]	< 50%	–	–
COc1ccc(C2=NN(C(=O)CCC(=O)O)C(c3ccccc3OC)C2)cc1OC (centres unmarked) [Example 98, 4-(3-(3,4-dimethoxyphenyl)-5-(2-methoxyphenyl)-4,5-dihydro-1H-pyrazol-1-yl)-4-oxobutanoic acid]	< 50%	–	–
COc1ccc(C2=NN(C(=O)CCC(=O)O)C(c3ccccc3)C2)cc1OC (centres unmarked) [Example 99, 4-(3-(3,4-dimethoxyphenyl)-5-phenyl-4,5-dihydro-1H-pyrazol-1-yl)-4-oxobutanoic acid]	< 50%	–	–
COc1ccc(C2=NN(C(C)=O)C(c3ccc(OC)c(OC)c3)C2)cc1OC (centres unmarked) [Example 100, 1-(3,5-bis(3,4-dimethoxyphenyl)-4,5-dihydro-1H-pyrazol-1-yl)ethanone]	< 50%	–	–
COc1ccc(C2=NN(C(C)=O)C(c3cccc(OC)c3OC)C2)cc1OC (centres unmarked) [Example 101, 1-(5-(2,3-dimethoxyphenyl)-3-(3,4-dimethoxyphenyl)-4,5-dihydro-1H-pyrazol-1-yl)ethanone]	< 50%	–	–
COc1ccc(C2=NN(C(C)=O)C(c3ccc(F)cc3)C2)cc1OC (centres unmarked) [Example 102, 1-(3-(3,4-dimethoxyphenyl)-5-(4-fluorophenyl)-4,5-dihydro-1H-pyrazol-1-yl)ethanone]	≥ 50%	–	–
COc1ccc(C2CC(c3ccc(OC)c(OC)c3)=NN2C(C)=O)cc1 (centres unmarked) [Example 103, 1-(3-(3,4-dimethoxyphenyl)-5-(4-methoxyphenyl)-4,5-dihydro-1H-pyrazol-1-yl)ethanone]	< 50%	–	–
COc1ccc(C2=NN(C(C)=O)C(c3ccccc3F)C2)cc1OC (centres unmarked) [Example 104, 1-(3-(3,4-dimethoxyphenyl)-5-(2-fluorophenyl)-4,5-dihydro-1H-pyrazol-1-yl)ethanone]	< 50%	–	–
COc1ccc(C2=NN(C(C)=O)C(c3ccccc3OC)C2)cc1OC (centres unmarked) [Example 105, 1-(3-(3,4-dimethoxyphenyl)-5-(2-methoxyphenyl)-4,5-dihydro-1H-pyrazol-1-yl)ethanone]	< 50%	–	–
COc1ccc(C2=NN(C(C)=O)C(c3ccccc3)C2)cc1OC (centres unmarked) [Example 106, 1-(3-(3,4-dimethoxyphenyl)-5-phenyl-4,5-dihydro-1H-pyrazol-1-yl)ethanone]	< 50%	–	–
COc1ccc(C2CNC(=O)C2)cc1OC1CCCC1 (centres unmarked) [rolipram]	–	–	~200 nM
